Read-outs that look alike come from different tables or passages of the source. Positions of bridges follow the written chain, without caps; N, C: chain ends. Residues, ends and D or L forms follow the SMILES beside them. Chains are numbered I, II in the order given. No end group written: not given here.
Key:
[1] = system: fusion between 293T-Spike and Calu-3 cells; type: cell-based
SARS-CoV-2 [2] = conditions: cited from earlier work
SARS-CoV-2 (HKU001a) = conditions: for 50% inhibitory concentration IC50: HKU001a, 18 h; for antiviral activity in the low salt condition: low salt (30 mM, PBS/5), plaque reduction assay
[3] = Cytotoxicity MTT assay, VeroE6; type: cell-based; conditions: VeroE6 cells, 24 h at 37 °C, DMEM with 1% FBS, n = 3, read-out: 50% toxicity concentration (TC50)
Method: (§1) Cytotoxicity of peptides was determined by the detection of 50% cytotoxic concentration (CC50) using a tetrazolium-based colorimetric MTT assay. Briefly, cells were seeded in a 96-well cell culture plate at an initial density of 4 × 10^4 cells per well in DMEM supplemented with 10% FBS and incubated overnight. Cell culture media were removed and then DMEM supplemented with various concentrations of peptides and 1% FBS were added to each well. After 24 h incubation at 37 °C, MTT solution (5 mg/mL, 10 μL per well) was added to each well for incubation at 37 °C for 4 h. Then, 100 μL of 10% SDS in 0.01 M HCl was added to each well. After further incubation at room temperature with shaking overnight, the plates were read at OD570 using VictorTM X3 Multilabel Reader (PerkinElmer, USA). Cell culture wells without peptides were used as the experiment control and the medium only served as a blank control.

[4] = Cytotoxicity MTT assay, Calu-3; type: cell-based; conditions: human, Calu-3 cells, 24 h at 37 °C, DMEM with 1% FBS, n = 3, read-out: 50% toxicity concentration (TC50)
Method: as §1

SARS-CoV-2 [5] = assay: Viral RNA copies in VeroE6 cell lysate after pretreatment (RT-qPCR); type: cell-based; conditions: virus pretreated by 4H30 (25 μg/mL), DMEM-treated virus 50-fold, n = 4
SARS-CoV-2 [6] = assay: Viral attachment assay at 4 °C (RT-qPCR); type: cell-based
spike-ACE2 binding = spike-ACE2 binding (Severe acute respiratory syndrome coronavirus 2, UniProt P0DTC2); assay: ELISA of spike binding to ACE2; conditions: ACE2 (150 ng) coated on ELISA plate; n = 6
[7] = ELISA binding to heparan sulfate; conditions: HS 300, 75 ng coated on ELISA plate; detection by anti-HBD2; compared with BSA; n = 4
[8] = ELISA binding to chondroitin sulfate; conditions: CS 300, 75 ng coated on ELISA plate; detection by anti-HBD2; compared with BSA; n = 4
[9] = system: spike-ACE2-mediated cell fusion in 293T cells; type: cell-based; conditions: 4H30 40 μM, bafilomycin A1 50 nM, remdesivir 80 μM; 6 h post coculture
[10] = system: endosomal acidification in VeroE6 cells; assay: Endosomal acidification assay; type: cell-based; conditions: 4H30 25 μg/mL, bafilomycin A1 50 nM, pH-sensitive dye
Method: Endosomal acidification was detected with a pH-sensitive dye (pHrodo green dextran, Invitrogen, Cat^# P35365) according to the manufacturer’s instructions as previously described but with slight modification. First, VeroE6 cells were treated with DMEM, 4H30 (25.0 μg/mL), or bafilomycin A1 (50.0 nM) at 4 °C for 15 min. Second, VeroE6 cells were added with 100 μg/mL of pH-sensitive dye and DAPI and then incubated at 4 °C for 15 min. Before taking images, cells were further incubated at 37 °C for 15 min and then cells were washed twice with PBS. Finally, PBS was added to cells and images were taken immediately with a confocal microscope (Carl Zeiss LSM 800, Germany).
Supplementary Fig. S7. 4H30 could inhibit endosomal acidification in VeroE6 cells. VeroE6 cells were treated with pH-sensitive dye (green in low pH endosomes) and the indicated inhibitor 4H30 (25 μg/mL), bafilomycin A1 (BA1, 50 nM) or DMEM. Nuclei were stained as blue. Cell only without treatment was the negative control (Neg). Representative live-cell images were taken by confocal microscope. Experiments were repeated with two independent biological samples. […]

SARS-CoV-2 [11] = assay: Viral release assay; type: cell-based
SARS-CoV-2 (B.1.1.63) [12] = assay: Pre-exposure antiviral assay in hamsters; type: in vivo; conditions: compared with mock-treated hamsters
SARS-CoV-2 (B.1.1.63) [13] = assay: Post-exposure antiviral assay in hamsters, B.1.1.63; conditions: hamster, in vivo
[14] = system: SARS-CoV-2 (B.1.617.2, Delta); assay: Post-exposure antiviral assay in hamsters, Delta; type: in vivo; conditions: for syncytia formation in hamster lungs: Delta, compared with mock-treated hamsters; for inhibition of viral replication in hamster lungs (PFU/lung) / lung inflammation: in vivo, hamster
SARS-CoV-2 [15] = assay: Plaque assay after 10,000-fold dilution of treated virus; type: cell-based
SARS-CoV-2 B.1.1.63 = conditions: B.1.1.63, 18 h
MERS-CoV = conditions: 18 h
[16] = intranasal, three doses of 0.5 mg/kg within two days; 4 days post-inoculation
[17] = mice; intranasal, three doses of 0.5 mg/kg within two days; compared with the PBS group; three mice in each group

For `CN(C)C(=O)COC(=O)Cc1ccc(OC(=O)c2ccc(NC(=N)N)cc2)cc1` [camostat], which “inhibition of cell-cell fusion, 293T-Spike + Calu-3” value (“inhibition of cell-cell fusion” below) [1] is on record?
The value was “could show the inhibition”.

And the “inhibition of SARS-CoV-2 in hamsters by camostat alone” value (SARS-CoV-2 [2])?
Its value is “not significantly inhibited”.

For `CC[C@H](C)[C@H](NC(=O)[C@H](C)NC(=O)CN)C(=O)N[C@@H](CS)C(=O)N[C@@H](Cc1c[nH]cn1)C(=O)N1CCC[C@H]1C(=O)N[C@H](C(=O)N[C@@H](Cc1ccccc1)C(=O)N[C@@H](CS)C(=O)N1CCC[C@H]1C(=O)N[C@@H](CCCNC(=N)N)C(=O)N[C@@H](CCCNC(=N)N)C(=O)N[C@@H](Cc1ccc(O)cc1)C(=O)N[C@@H](CCCCN)C(=O)N[C@@H](CCC(N)=O)C(=O)N[C@H](C(=O)NCC(=O)N[C@H](C(=O)N[C@@H](CS)C(=O)NCC(=O)N[C@@H](CC(C)C)C(=O)N1CCC[C@H]1C(=O)NCC(=O)N[C@H](C(=O)N[C@@H](CCCCN)C(=O)N[C@@H](CS)C(=O)N[C@@H](CS)C(=O)N[C@@H](CCCCN)C(=O)N[C@@H](CCCCN)C(=O)N1CCC[C@H]1C(=O)O)[C@@H](C)O)[C@@H](C)O)[C@@H](C)CC)C(C)C` [H30] (H-GAICHPVFCPRRYKQIGTCGLPGTKCCKKP-OH; N-terminus and C-terminus assumed), which “50% inhibitory concentration IC50” value (SARS-CoV-2 (HKU001a)) is on record?
The value was > 25 µg/mL.

What about the “antiviral activity in the low salt condition” value (SARS-CoV-2 (HKU001a)) of the same compound?
Its value is “more effective in the low salt condition”.

For “I: GAICHPVFCPRRYKQIGTCGLPGTKCCKKPKK / II: GAICHPVFCPRRYKQIGTCGLPGTKCCKKPK / III: GAICHPVFCPRRYKQIGTCGLPGTKCCKKP / IV: GAICHPVFCPRRYKQIGTCGLPGTKCCKKP (amide I:31-IV:C, I:32-II:C, II:31-III:C; cysteines drawn unpaired) [4H30]”, which CC50 at 24 h [3] is on record?
The CC50 at 24 h was > 400 µg/mL.

What about the CC50 at 24 h [4] of the same compound?
Its CC50 at 24 h is > 400 µg/mL.

And the “viral RNA increase at 6 hpi compared with viral load at 1 hpi” value (SARS-CoV-2 [5])?
Its value is “less than threefold”.

What about the “SARS-CoV-2 attachment to A549 (ACE2–) and Calu-3 (ACE2+) cells” value (SARS-CoV-2 [6]; cells treated with 12.5 μg/mL, attachment at 4 °C, compared with BSA- or DMEM-treated cells) of the same compound?
Its value is “significantly increased”.

What about the “SARS-CoV-2 attachment to VeroE6 cells” value (SARS-CoV-2 [6]; virus pre-mixed with 25 μg/mL for 1 hour, attachment at 4 °C for 1 hour, n = 4) of the same compound?
Its value is “increase”.

What about the “effect on binding between the spike and ACE2” value (spike-ACE2 binding) of the same compound?
Its value is “did not directly affect the binding”.

And the “binding to heparan sulfate (HS)” value [7]?
Its value is “effectively bind”.

And the “binding to chondroitin sulfate (CS)” value [8]?
The value was “effectively bind”.

And the “inhibition of spike-ACE2-mediated cell fusion, 293T-Spike + 293T-ACE2” value (“inhibition … 293T-Spike + 293T-ACE2” below) [9]?
Its value is “could inhibit the fusion”.

And the “inhibition of cell-cell fusion” value ([1]; 4H30 125 μg/mL, bafilomycin A1 50 nM, camostat 100 μg/mL, 6-8 h post-coculture)?
Its value is “could not inhibit”.

And the “inhibition of endosomal acidification in live cells” value [10]?
Its value is “could inhibit”.

And the “inhibition of viral release” value (SARS-CoV-2 [11])?
The value was “significantly inhibit viral release”.

And the “syncytia in bronchial epithelium” value (SARS-CoV-2 (B.1.1.63) [12])?
Its value is “reduced”.

And the “inhibition of SARS-CoV-2 replication in lungs, post-exposure” value (SARS-CoV-2 (B.1.1.63) [13])?
Its value is “significantly inhibit”.

What about the “syncytia formation in hamster lungs” value [14] of the same compound?
Its value is “could reduce the syncytia formation”.

What about the “inhibition of viral replication in hamster lungs (PFU/lung)” value [14] of the same compound?
Its value is 9 fold.

And the lung inflammation [14]?
Its lung inflammation is “could reduce lung inflammation”.

What about the “inhibition of infection after dilution of treated virus” value (SARS-CoV-2 [15]) of the same compound?
Its value is “significantly inhibit”.

What about the “50% inhibitory concentration IC50” value (SARS-CoV-2 (HKU001a)) of the same compound?
The value was 0.59 µg/mL.

What about the “antiviral activity in the low salt condition” value (SARS-CoV-2 (HKU001a)) of the same compound?
The value was “significantly inhibited”.

And the IC50 (SARS-CoV-2 B.1.1.63)?
The IC50 was 0.48 µg/mL.

What about the IC50 (MERS-CoV) of the same compound?
Its IC50 is 1.01 µg/mL.

And the “pathological and body weight changes in hamsters” value [16]?
Its value is “did not cause significant pathological and body weight changes”.

And the “lung histopathology and body weight changes for 40 days” value [17]?
The value was “no significant histopathological and consistent body weight change”.

For `CCC(CC)COC(=O)[C@H](C)N[P@](=O)(OC[C@H]1O[C@@](C#N)(c2ccc3c(N)ncnn23)[C@H](O)[C@@H]1O)Oc1ccccc1` [remdesivir, reference compound], which “inhibition … 293T-Spike + 293T-ACE2” value [9] is on record?
Its value is “without inhibition”.

And the “syncytia formation in hamster lungs” value [14]?
Its value is “syncytia could be easily observed”.

What about the “inhibition of viral replication in hamster lungs (PFU/lung)” value [14] of the same compound?
Its value is 33 fold.

And the lung inflammation [14]?
The lung inflammation was “could reduce lung inflammation”.

With `CO/C1=C\C(C)=C\[C@@H](C)[C@@H](O)[C@@H](C)C/C(C)=C/C=C/[C@H](OC)[C@@H]([C@@H](C)[C@@H](O)[C@H](C)[C@@]2(O)C[C@@H](O)[C@H](C)[C@@H](C(C)C)O2)OC1=O` [bafilomycin A1] as the compound, how does the “inhibition … 293T-Spike + 293T-ACE2” value [9] read?
Its value is “inhibition”.

And the “inhibition of cell-cell fusion” value [1]?
The value was “could not inhibit”.

What about the “cell fusion size, 293T-Spike + Calu-3” value ([1]; 4H30 125 μg/mL, BA1 50 nM, 6-8 h post-coculture, non-fusion cell size ~10 μm) of the same compound?
The value was > 40 μm.

What about the “inhibition of endosomal acidification in live cells” value [10] of the same compound?
Its value is “could inhibit”.

Source: article PMC9243000 (Cell Discovery, 2022)
